According to publication PMC5343027, “Crystal Structure of the Chloroplastic Oxoene Reductase ceQORH from Arabidopsis thaliana” (Frontiers in Plant Science, 2017):
pIC50: −log10 of the molar value. Each block holds one molecule with its values, some of them ahead of it.

How the values were obtained:
[1] = target: T1, ceQORH (chloroplast envelope quinone oxidoreductase homolog) (Arabidopsis thaliana, UniProt Q9SV68); assay: X-ray crystal structures, […] Å (binary) and […] Å (ternary with NADP+); type: binding
T1 sequence (Q9SV68 1-329): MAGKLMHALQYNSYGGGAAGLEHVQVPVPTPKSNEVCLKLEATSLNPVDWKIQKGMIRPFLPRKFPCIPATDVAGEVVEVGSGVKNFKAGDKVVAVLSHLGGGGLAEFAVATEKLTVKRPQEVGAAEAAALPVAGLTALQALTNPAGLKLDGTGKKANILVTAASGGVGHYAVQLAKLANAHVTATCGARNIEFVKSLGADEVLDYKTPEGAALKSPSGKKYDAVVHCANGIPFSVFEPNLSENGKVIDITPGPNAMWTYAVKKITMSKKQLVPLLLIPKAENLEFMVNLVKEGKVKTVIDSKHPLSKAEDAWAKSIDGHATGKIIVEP

[2] = target: T1, ceQORH (chloroplast envelope quinone oxidoreductase homolog); assay: X-ray crystal structure, […] Å, ternary complex with 13-KOTE; type: binding
[3] = target: T1, ceQORH (chloroplast envelope quinone oxidoreductase homolog); assay: enzyme inhibition kinetics ([…] nm) after […] s preincubation, […] trans-1, […] diphenyl-2-propenone; low-quality crystal structure with NADPH not used; type: biochemical

SMILES: CC/C=C\CC(=O)/C=C/C=C/CCCCCCCC(=O)O [13-KOTE, 13-oxo-9(Z), 11(E), 15(Z)-octadecatrienoic acid]
X-ray crystal structures, 2.78 Å (binary) and 2.81 Å (ternary with NADP+) [1]: apo-ceQORH (5A3V), ceQORH-13-KOTE (5A3J), and ceQORH-NADP^+-13-KOTE (5A4D)

SMILES: NC(=O)c1ccc[n+]([C@@H]2O[C@H](COP(=O)(O)OP(=O)(O)OC[C@H]3O[C@@H](n4cnc5c(N)ncnc54)[C@H](OP(=O)(O)O)[C@@H]3O)[C@@H](O)[C@H]2O)c1 [NADP^+]
X-ray crystal structure, 2.81 Å, ternary complex with 13-KOTE [2]: NADP^+ is bound at the interface of the two domains and the nicotinamide ring is in the vicinity of the catalytic site

pIC50 [3]: 4.44
SMILES: CCCCCC(=O)/C=C/C=C\CCCCCCCC(=O)O [13-KODE, 13-oxo-9(Z),11(E)-octadecadienoic acid]
